Data as given in patent US9540702B2, “Stabilization of enzymes with stable coenzymes” (Roche Diabetes Care, Inc., priority 2009, dated 2017).

How the values were obtained:
[1] = biological target: glucose dehydrogenase/NAD system (Bacillus subtilis, UniProt P12310); test: Photometric glucose determination with test elements containing GlucDH, NAD, mediator and 2,18-phosphomolybdic acid; conditions: glucose in the region of 800 mg/dl; test elements stored 11 weeks at room temperature
Method: Various test systems which each contained glucose dehydrogenase, NAD, a mediator and, where appropriate, an optical indicator, were measured photometrically and electrochemically in order to determine glucose.
For photometric measurements four test elements which had each been stored for 11 weeks at room temperature and contained 2,18-phosphomolybdic acid in addition to glucose dehydrogenase, NAD and a mediator, were initially investigated at various glucose concentrations.
The kinetics of the conversion of glucose using the system glucose dehydrogenase, NAD, 1-(3-carboxypropoxy)-5-ethylphenazinium-trifluoromethane sulfonate and 2,18-phosphomolybdic acid at glucose concentrations in the range from 0 to 800 mg/dl is shown in FIG. 14.

[2] = biological target: glucose dehydrogenase (GlucDH) (Bacillus subtilis, UniProt P12310); test: Stability of glucose dehydrogenase with coenzyme in a liquid phase at 50° C.; type: biochemical; conditions: 10 mg/ml GlucDH, 12 mg/ml coenzyme, pH 8.5
Method: FIGS. 9A and 9B are graphical illustrations of the stability of glucose dehydrogenase in the presence of NAD or cNAD in a liquid phase at 50° C. for a period of 4 days (FIG. 9A) or 14 days (FIG. 9B) with test conditions of 10 mg/ml GlucDH; 12 mg/ml NAD or cNAD; buffer: 0.1 M Tris, 1.2 M NaCl, pH 8.5; temperature 50° C.
After 95 hours at 50° C. the residual activity of glucose dehydrogenase in the presence of the native coenzyme NAD is […], whereas the residual activity of GlucDH in the presence of the artificial coenzyme cNAD is 75% (FIG. 9A). After 336 hours storage at 50° C. the residual activity of the enzyme stabilized with NAD is now only about 1%; a residual activity of still about 70% is observed for the enzyme stored in the presence of cNAD. The corresponding SDS gels also show a change in the GlucDH bands in the presence of the native coenzyme NAD: new bands are seen at higher molar masses and there is a shift in the 30 kDa band.

[3] = biological target: T1, alcohol dehydrogenase (ADH) (Saccharomyces cerevisiae, UniProt P00330); test: Stability of alcohol dehydrogenase with coenzyme in a liquid phase at 35° C.; type: biochemical, yeast; conditions: 65 hours at 35° C., 5 mg/ml ADH, 50 mg/ml coenzyme, pH 9.0
T1 sequence (P00330 1-348): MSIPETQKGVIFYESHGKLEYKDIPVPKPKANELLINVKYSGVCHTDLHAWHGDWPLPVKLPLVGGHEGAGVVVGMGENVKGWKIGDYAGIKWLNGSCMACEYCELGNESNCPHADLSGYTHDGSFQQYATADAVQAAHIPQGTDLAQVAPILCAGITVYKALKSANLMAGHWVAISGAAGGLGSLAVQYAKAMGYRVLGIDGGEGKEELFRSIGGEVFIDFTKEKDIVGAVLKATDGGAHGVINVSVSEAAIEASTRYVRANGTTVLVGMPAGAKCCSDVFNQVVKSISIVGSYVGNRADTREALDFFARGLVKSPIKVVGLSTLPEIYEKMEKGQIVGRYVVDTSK
Method: FIG. 12 is a graphical illustration of the stability of alcohol dehydrogenase from yeast in the presence of NAD or cNAD in a liquid phase at 35° C. for a period of 65 hours with test conditions of 5 mg/ml ADH; 50 mg/ml NAD or cNAD; buffer: 75 mM Na4P2O7; glycine, pH 9.0; temperature 35° C.
(§1) cNAD or NAD was added to a detection solution containing alcohol dehydrogenase. These mixtures were stored at 2-8° C. and at 35° C. Subsequently, the stability of alcohol dehydrogenase (ADH) was checked at regular intervals and the residual activity of the enzyme was determined.
The residual activity of alcohol dehydrogenase in the presence of the native coenzyme NAD is at about 6% after 65 hours at 35° C., whereas the residual activity of the enzyme in the presence of the artificial coenzyme cNAD is still at about 60%.

[4] = biological target: T1, alcohol dehydrogenase (ADH); test: Storage of alcohol dehydrogenase detection solution with NAD or cNAD (Tables 1 and 2); type: biochemical, yeast; conditions: 16 mmol/l coenzyme
Method: as §1
If alcohol dehydrogenase is stored together with native NAD or with cNAD for several months at 2-8° C. in a refrigerator, then one observes in the case of […] a considerable decrease in enzyme activity over the entire storage period. Whereas the difference after 2 weeks storage is still slight, there is an approximately 20% higher residual activity of alcohol dehydrogenase after 12 months storage in the presence of 16 mM cNAD compared to a corresponding solution containing 16 mM NAD as the coenzyme.
Accordingly, the residual activity of alcohol dehydrogenase can be increased somewhat in samples that have been stored for 2 weeks at 2-8° C. by increasing the concentration of cNAD.

[5] = biological target: Glucose dehydrogenase mutant2 (Bacillus subtilis, UniProt P12310, A229V/A236S/E170K/Q252L); test: Differential scanning calorimetry (DSC) of coenzyme binding; conditions: Tris buffer, pH 8.0; versus absence of NAD (79.1° C.)
Glucose dehydrogenase mutant2, sequence (P12310 whole entry E170K/A229V/A236S/Q252L): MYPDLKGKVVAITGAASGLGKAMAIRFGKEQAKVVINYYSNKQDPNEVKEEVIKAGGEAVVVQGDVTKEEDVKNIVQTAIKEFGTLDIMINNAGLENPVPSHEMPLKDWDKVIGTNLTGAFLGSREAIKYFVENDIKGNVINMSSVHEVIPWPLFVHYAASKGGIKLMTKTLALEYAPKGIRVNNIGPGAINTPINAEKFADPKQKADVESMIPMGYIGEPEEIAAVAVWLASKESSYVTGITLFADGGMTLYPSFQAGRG

glucose dehydrogenase/NAD system, sequence (P12310 whole entry): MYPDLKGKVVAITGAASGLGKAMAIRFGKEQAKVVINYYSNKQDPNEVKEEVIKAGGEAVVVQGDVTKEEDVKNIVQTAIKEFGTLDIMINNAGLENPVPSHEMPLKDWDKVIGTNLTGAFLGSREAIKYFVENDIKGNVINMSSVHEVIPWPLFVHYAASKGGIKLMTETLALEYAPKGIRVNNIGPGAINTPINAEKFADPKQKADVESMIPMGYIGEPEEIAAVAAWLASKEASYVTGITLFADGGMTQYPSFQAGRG
glucose dehydrogenase (GlucDH), sequence (P12310 whole entry): as above

Structure (SMILES)	reflectance of the measured sample [1]	residual activity of glucose dehydrogenase ([2]; 95 hours at 50° C.) [%]	residual activity of glucose dehydrogenase ([2]; 336 hours at 50° C.)	residual activity of alcohol dehydrogenase [3]	ADH activity after 2 weeks at 2-8° C. ([4]; 2 weeks at 2-8° C.)	ADH activity after 3 months at 2-8° C. ([4]; 3 months at 2-8° C.)	ADH activity after 7.5 months at 2-8° C. ([4]; 7.5 months at 2-8° C.)	ADH activity after 10 months at 2-8° C. ([4]; 10 months at 2-8° C.)	ADH activity after 12 months at 2-8° C. ([4]; 12 months at 2-8° C.)	ADH activity % of weighed amount (initial value) ([4]; initial value)	TM shift on binding of ligand [5]
CC[n+]1c2ccccc2nc2c(OCCCC(=O)O)cccc21.O=S(=O)([O-])C(F)(F)F [1-(3-carboxy-propoxy)-5-ethylphenazinium-trifluoromethane sulfonate]	about 20%	–	–	–	–	–	–	–	–	–	–
NC(=O)c1ccc[n+]([C@@H]2O[C@H](COP(=O)([O-])OP(=O)(O)OC[C@H]3O[C@@H](n4cnc5c(N)ncnc54)[C@H](O)[C@@H]3O)[C@@H](O)[C@H]2O)c1 [NAD, nicotinamide adenine dinucleotide, reference compound]	–	> 5	about 1%	about 6%	96.9 % of initial value	92.1 % of initial value	80.2 % of initial value	70.3 % of initial value	60.5 % of initial value	85.2 % of weighed amount	more than 1.5 °C
Cl.O=Nc1ccc(N(CO)CO)cc1 [[(4-nitroso-phenyl)imino]dimethanol hydrochloride]	about 20%	–	–	–	–	–	–	–	–	–	–
